Legend:
apoE−/− mice = experiment: ApoE−/− high-cholesterol diet model (aorta plaque progression); assay type: in vivo; settings: 8 weeks diet then 4 weeks 100 μg/kg/day
Method: FIG. 19A-L: Effect of P2Y13 agonist on atherosclerotic plaque progression in aortas of apoE^−/− mice. ApoE^−/− mice (n=20) were placed on a Western diet for 8 weeks followed by a 4 weeks oral gavage of vehicle or 100 μg/kg of Compound IIa. Aortas (n=10) were lipid extracted in 2:1 chloroform/methanol. FIG. 19A: the concentrations in total cholesterol were measured by HPLC and GC/MS and compared to parallel apoE−/− mice (n=10) on normal Chow diet as a baseline. FIG. 19B: quantification of the intima/media ratio (n=10). FIG. 19C: F4/80 antibody staining quantification (n=10). FIG. 19D: Oil Red O positive staining quantification (n=10). FIG. 19E: quantification of Sirius Red staining (n=10). FIG. 19F: anti-VCAM1 antibody staining quantification (n=10). The quantifications were expressed as the percentage of staining as compared to the sum of the intima and media area. *p<0.05. FIG. 19G to FIG. 19L: typical example of staining of aorta slides used for the quantifications. FIG. 19G and FIG. 19J: hematoxylin eosin staining of transversal sections of apoE^−/− mice aortas. FIG. 19H and FIG. 19K: Oil Red O staining of transversal sections of apoE^−/− mice aortas. FIG. 19I and FIG. 19L: VCAM1 antibody staining of transversal sections of apoE^−/− mice aortas.
Mice were placed for two month on Western diet (0.2% cholesterol, 21% butter milk) then dosed with Compound IIa once a day at 100 μg/kg (0.5% CMC, 0.2% Tween80) for 4 more weeks. The mice were sacrificed and the aortas were collected for biochemical and immunohistological characterizations. One set of aorta (n=10) was detached at the base of the heart and placed in a glass tube with 3 ml of chloroform-methanol 2:1 (v/v), and stigmasterol as the internal standard. Then analyzed as described above. Another set of aortas (n=10) were first extensively washed with PBS, then with 4% paraformaldehyde (500 μl) and finally with tissue tek OCT (500 μl). Next the aorta was embedded in OCT and frozen at −20° C. Three step frozen sections of 10 μm separated one from the other were processed and stained with Oil red O (ORO), Sirius red and hematoxylin/eosin. Macrophages were detected using F4/80 primary rat monoclonal antibody (Abcam) and VCAM was detected using rat anti mouse CD106 (AbDSerotec).
The prevention of progression of the plaque in aorta was further evaluated in the cholesterol diet-fed apoE−/− mice (FIG. 19). […] The collagen content of the wall was improved (FIG. 19E).

C57Bl6 mice = experiment: Dose response on bile physiology after single oral gavage in mice; assay type: in vivo
Method: FIG. 16A-J: Increase of bile secretion following activation of P2Y13r pathway in mice. C57Bl/6J mice (n=10) were fasted for 2 h and then intravenously injected with Cangrelor® or Compound IIa (10 nmoles/kg). Four hours later the gallbladders were removed and analyzed for: Bile acids content (FIG. 16A); Bile cholesterol content (FIG. 16B). C57Bl/6J mice (n=10) were fasted for 2 h followed by single oral dose of P2Y13r agonist Compound IIa at 3, 30 or 300 μg/kg. Six hours later bile acids contents (FIG. 16C); bile cholesterol content (FIG. 16D), and bile acid content of liver (FIG. 16E) were evaluated using HPLC and enzymatic kits for gallbladers. Plasma samples were collected at time 0 and after 6 h of treatment, then analyzed for: total cholesterol (▴), unesterified cholesterol (●), esterified cholesterol (▪) and HDL cholesterol (▾) determined using either enzymatic kits or Lipoprint® for HDL cholesterol (FIG. 16F). C57Bl/6J mice (n=5) were intravenously injected with [^3H]-cholesterol-labelled mouse HDL (FIG. 16G), [^3H]-cholesteryl oleate-labelled mouse HDL (FIG. 16H) or [^3H]-cholesterol-labelled mouse LDL (FIG. 16I), and with Cangrelor® or Compound IIa (10 nmoles/kg). Radioactivity present in the liver was determined 2 hours later for the HDL or 5 hours later for the LDL. Cholesterol content of feces from treated animals (100 μg/kg) was determined by Charge aerosol detection (FIG. 16J). *p<0.05, **p<0.01.
The dose response after oral gavage was determined for illustrative compounds of the invention. The chosen doses were 0.003, 0.03 and 0.3 mg/kg. The selected compounds of the invention were administrated by oral gavage and 6 hours later the mice are sacrificed and the bile content was analyzed (FIGS. 6-11).
Bile acids were diluted in PBS (1:5000) and the concentration was measured according to the manufacturer protocol with slight modifications. Concentrations of bile acids in the standard curve were varied from […] and the enzymatic reaction was performed for 20 minutes. 4 μl of 1:5000 bile dilution was used for concentration determination.
Bile phospholipids were measured according to the manufacturer protocol. Briefly, the standards were varied from 0 to 20 μg/ml and 4 μl of bile was measured in the assay. The reaction was performed for 5 minutes at 37° C.
Bile phospholipids were measured according to the manufacturer protocol. Briefly, the standards were varied from 0 to 60 μg/ml and 10 μl of bile (dilution 1:10) was measured in the assay. The reaction was performed for 5 minutes at 37° C.

In the case of `CN(C)c1ncc(CN2CCC(c3cc(O)nc(N4CCOCC4)n3)CC2)cn1` [Compound IIa, 6-[1-(2-Dimethylaminopyrimidin-5-ylmethyl)-piperidin-4-yl]-2-morpholin-4-yl-pyrimidin-4-ol], the “VCAM1 expression (antibody CD106)” value (apoE−/− mice) is reported as “significant decreases”, the “cholesterol content of aorta” value (apoE−/− mice) is reported as “significant decreases” and the “collagen content of the wall” value (apoE−/− mice) is reported as “improved”. For the same compound, the “lipid staining of aorta” value (apoE−/− mice) was “decrease”, the “macrophage content (F4/80 antibody) of the aortic wall and the plaque” value (apoE−/− mice) was “decreased” and the “plaque area in aorta” value (apoE−/− mice) was “significant decreases”. The “plasma cholesterol and HDL” value (C57Bl6 mice; after 4 h of treatment, exception: unesterified cholesterol) was “not significantly affected”, the “dose at which an effect on bile acids, bile cholesterol and bile phospholipids was shown” value (C57Bl6 mice; oral gavage 0.003, 0.03 and 0.3 mg/kg, bile analyzed 6 hours later) was 3 µg/kg and the “bile acid and cholesterol secretion in the bile” value (C57Bl6 mice; oral gavage, doses as low as 30 μg/kg) was “stimulation”. The “liver bile acid content” value (C57Bl6 mice; oral, 30 μg/kg) was “increase”.

Source: patent US10220040B2, “Compounds, compositions and methods useful for cholesterol mobilization” (Cerenis Therapeutics Holding SA, priority 2010, dated 2019)
